Measured values from ChEMBL document CHEMBL4392860, “Characterization of the substrate scope of an alcohol dehydrogenase commonly used as methanol dehydrogenase” (Bioorg Med Chem Lett, 2019).

What was measured:
Settings in all cases: DSM 2334
[1] = system: Geobacillus stearothermophilus
Description: Substrate activity at Geobacillus stearothermophilus DSM 2334 ADH expressed in Escherichia coli BL21 (DE3) assessed as Km in 50 mM HEPES buffer at pH 7.5 at 23 degC by MTT dye based Lineweaver-Burk plot analysis

[2] = system: Geobacillus stearothermophilus; remark: listed apart in the source
Description: Substrate activity at Geobacillus stearothermophilus DSM 2334 ADH expressed in Escherichia coli BL21 (DE3) assessed as Kcat in 50 mM HEPES buffer at pH 7.5 at 23 degC by MTT dye based Lineweaver-Burk plot analysis

[3] = system: Geobacillus stearothermophilus; remark: listed apart in the source
Description: Substrate activity at Geobacillus stearothermophilus DSM 2334 ADH expressed in Escherichia coli BL21 (DE3) assessed as Kcat/Km ratio in 50 mM HEPES buffer at pH 7.5 at 23 degC by MTT dye based Lineweaver-Burk plot analysis

Km [1]	kcat [2]	kcat/Km [3]	SMILES
39.8 mM	0.019 s⁻¹	0.46 M⁻¹ s⁻¹	CCCO
23.6 mM	0.041 s⁻¹	1.71 M⁻¹ s⁻¹	OCCCO
23.8 mM	0.094 s⁻¹	3.96 M⁻¹ s⁻¹	CCC(C)O (configuration not stated)
	0.026 s⁻¹	0.046 M⁻¹ s⁻¹	CC(C)(C)O
1.26 mM	0.076 s⁻¹	60.3 M⁻¹ s⁻¹	CC(C)O
2.95 mM	0.019 s⁻¹	6.26 M⁻¹ s⁻¹	CCO
2.45 mM	0.004 s⁻¹	1.67 M⁻¹ s⁻¹	CCCCO

SMILES	Km [1]	kcat [2]	kcat/Km [3]
CO		0.013 s⁻¹	0.044 M⁻¹ s⁻¹
